Assay results taken from US7141561B2, “Substituted diaryl heterocycles, process for their preparation and their use as medicaments” (Sanofi-Aventis Deutschland GmbH, priority 2002, dated 2006).

System: female NMRI mice
Experiment: Anorectic effect: cumulative condensed milk consumption of mice
Format: in vivo
Settings: oral dose 30 mg/kg by gavage
Experimental: The anorectic effect was tested on female NMRI mice. After withdrawal of food for 17 hours, the test compound was administered by gavage. The animals were housed singly with free access to drinking water and were offered condensed milk 30 minutes after administration of the compound. Condensed milk consumption was determined every half hour for 7 hours, and the general wellbeing of the animals was observed. The measured milk consumption was compared with the vehicle-treated control animals.
Table 1: Anorectic effect measured as the reduction in the cumulative milk consumption of treated compared with control animals.

CN(C)CCOc1ccc(-n2ccn(-c3ccc(Oc4ccccc4)cc3)c2=O)cc1 [Example 1, 1-[4-(2-Dimethylaminoethoxy)phenyl]-3-(4-phenoxyphenyl)-1,3-dihydroimidazol-2-one]
cumulative milk consumption of the treated animals (female NMRI mice after 17 hours food withdrawal, N=5, consumption determined for 7 hours): 5/1.7 ml
Reduction in the cumulative milk consumption as % of the control (female NMRI mice, compared with vehicle-treated control animals): 58%
